Laboratory results published in US6147077A, “2R,4S-hydroxyitraconazole isomers” (priority 1999, dated 2000).
≈ marks a conversion by molar mass, not a printed value. Where two headings read alike, the source gives them in different places. One block for each molecule: values may come before it.

Columns and labels:
[1] = Water solubility of hydroxyitraconazole phosphate isomers (NMG salts); assay type: physicochemical; settings: water; Table 8
Description: The water solubility of the NMG salts of the phosphate esters of isomers 1, 2 and 3+4 were investigated and compared to the corresponding hydroxyitraconazole isomers 1, 2 and 3+4. The phosphate esters were as much as 10^7 times more water soluble than the corresponding hydroxyitraconazole isomer.

Candida albicans = test: Antifungal MIC, Candida albicans; assay type: cell-based; settings: Candida albicans
Procedure: (§1) A 10 mL tube containing 4 mL of Sabourauds dextrose broth was inoculated with 1 colony of Candida albicans picked from a plate of pure culture. The strain was ordered from the American Type Culture Collection (ATCC). The organism was grown for 4 hours at 30° C. while shaking at 150 RPM. While the organism was growing, samples of hydroxy-itraconazoles were solubilized to a concentration of 10 mg/mL in DMSO. Each sample was then diluted 1:10 to make 1 mg/mL samples or 1000 μg/mL. These samples were then diluted by serial 2-fold dilutions to produce samples now containing 1000, 500, 250, 125, 62.5, 31.25, 15.6 μg/mL. […] At 4 hours of growth time the Candida albicans was diluted to a 0.5 McFarland standard representing about 10^5 -10^6 cells/mL and 1 μL of this inoculum placed into each test well of the microtiter dish. The dish was then covered and incubated at 30° C. for 16 hours.

cytochrome P450 3A4 [2] = biological target: T1, cytochrome P450 3A4 (Homo sapiens, UniProt P08684); test: Inhibition of cytochrome P450 3A4 (testosterone 6β-hydroxylase activity)
T1 sequence (P08684 whole entry): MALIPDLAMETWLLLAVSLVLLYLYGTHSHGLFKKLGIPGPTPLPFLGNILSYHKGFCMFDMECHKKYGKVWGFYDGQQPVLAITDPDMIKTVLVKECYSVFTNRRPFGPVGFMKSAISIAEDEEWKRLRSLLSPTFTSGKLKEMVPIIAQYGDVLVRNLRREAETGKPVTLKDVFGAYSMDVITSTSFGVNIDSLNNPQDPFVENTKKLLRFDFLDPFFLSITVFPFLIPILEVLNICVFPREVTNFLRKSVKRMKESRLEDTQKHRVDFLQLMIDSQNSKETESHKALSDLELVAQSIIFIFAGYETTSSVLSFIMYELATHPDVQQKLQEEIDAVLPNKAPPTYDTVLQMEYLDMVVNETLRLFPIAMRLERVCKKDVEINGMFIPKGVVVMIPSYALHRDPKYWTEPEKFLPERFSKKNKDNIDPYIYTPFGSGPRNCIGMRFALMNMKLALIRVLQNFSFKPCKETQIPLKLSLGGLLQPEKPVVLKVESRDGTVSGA
Procedure: (§3) The IC50 values were determined by the appearance of 6β-hydroxytestosterone after incubation with testosterone. […] Of greater clinical significance is the ratio of the IC50 for 3A4 to the MIC for C. albicans 44203.

[3] = Water solubility of hydroxyitraconazole isomers and itraconazole; assay type: physicochemical; settings: water; LOD: 5000 μV*sec; order-of-magnitude accuracy below LOD; 3+4 and 11+12 ±10%
Procedure: The isomers of cis hydroxyitraconazole were tested for water solubility against a […] standard solution of hydroxyitraconazole. […] The values for 3+4 and 11+12 are barely above the LOD, giving accuracies of ±10%. In every case, solubilities were in the 10^1 to 10^2 ng/ml range.

Sacchromyces cerevisae = test: Kirby-Bauer Testing, Saccharomyces cerevisiae; assay type: cell-based; settings: Saccharomyces cerevisiae, 10 μl of 10 mg/mL per disk, 30° C., 16 hours
Procedure: The hydroxyitraconazole isomers were tested for biological activity according three different assays.
Actively growing cultures of Candida albicans, Cryptococcus neoformens and Saccharomyces cerevisiae were prepared as described above. The cultures were diluted to a 0.5 McFarland standard and swabbed onto a 150 mm Sabouraud Dextrose agar plates. Paper disks (7 mm) were placed onto the agar plates using a disk dispenser. […] The plates were then incubated at 30° C. for 16 hours. Zones of inhibition were then measured in mm.

A. fumigatis = test: Antifungal MIC, A. fumigatis; assay type: cell-based; settings: A. fumigatis (Table 3)
Procedure: [The source words this procedure for another organism and reports this organism under the same test.] as §1

Cr. neoformens = test: Antifungal MIC, Cr. neoformens; assay type: cell-based, Cryptococcus neoformens; settings: Cryptococcus
Procedure: [The source words this procedure for another organism and reports this organism under the same test.] as §1

S. cerevisae = test: Antifungal MIC, S. cerevisae; assay type: cell-based, Saccharomyces cerevisiae; settings: Saccharomyces cerevisiae
Procedure: [The source words this procedure for another organism and reports this organism under the same test.] as §1

[4] = Hydrolysis of phosphate esters in porcine brain; assay type: in vitro ADME; settings: both free acid and bis(N-methylglucamine) salt
Procedure: (§2) The phosphate analogs of the isomers with the largest IC50 /MIC ratios, 1, 2 and 3+4 were further investigated for hydrolysis in plasma and tissues. […] The A% conversion (as determined by HPLC A% analysis) of the phosphate ester to the hydroxy compound was determined in three systems: human plasma, equine pancreas and porcine brain. […] Hydrolysis proceeded to >10% overnight at 37° C. in pancreas and brain, and 3% in human plasma. The hydrolyses of the three phosphates of 1, 2 and 3+4 were also studied in various rat tissues and plasma. In all cases, the jejunum and liver gave the greatest conversion to hydroxyitraconazole, ranging from 20% to 40% for the free acids.

[5] = Hydrolysis of phosphate esters in human plasma; assay type: in vitro ADME; settings: both free acid and bis(N-methylglucamine) salt
Procedure: as §2

[6] = Hydrolysis of phosphate esters in equine pancreas; assay type: in vitro ADME; settings: both free acid and bis(N-methylglucamine) salt
Procedure: as §2

cytochrome P450 3A4 [7] = biological target: T1, cytochrome P450 3A4
Procedure: as §3

[8] = Candida albicans strain 44203 (Table 4), read-out: MIC
[9] = C. albicans (Table 7, esters), read-out: Antifungal MIC

Structure (SMILES): C[C@@H](OP(=O)(O)O)[C@H](C)n1ncn(-c2ccc(N3CCN(c4ccc(OC[C@H]5CO[C@](Cn6cncn6)(c6ccc(Cl)cc6Cl)O5)cc4)CC3)cc2)c1=O [1-PO3 --NMG2]
solubility [1]: > 100000 µg/mL

Structure (SMILES): CC(O)C(C)n1ncn(-c2ccc(N3CCN(c4ccc(OC[C@H]5CO[C@](Cn6cncn6)(c6ccc(Cl)cc6Cl)O5)cc4)CC3)cc2)c1=O (some centres unmarked) [3 + 4]
MIC (Candida albicans; [8]): 0.1 µg/mL
selectivity ratio (cytochrome P450 3A4 [2]): 24
solubility [3]: 1.97 µg/mL
solubility [1]: 2 µg/mL
zone of inhibition at 10000 µg/mL (Sacchromyces cerevisae): 23 mm

Structure (SMILES): CCC(C)n1ncn(-c2ccc(N3CCN(c4ccc(OC[C@H]5CO[C@](Cn6cncn6)(c6ccc(Cl)cc6Cl)O5)cc4)CC3)cc2)c1=O (some centres unmarked) [5 + 6]
MIC (Candida albicans): 0.156 µg/mL

Structure (SMILES): CCC(C)n1ncn(-c2ccc(N3CCN(c4ccc(OC[C@@H]5CO[C@@](Cn6cncn6)(c6ccc(Cl)cc6Cl)O5)cc4)CC3)cc2)c1=O (some centres unmarked) [7 + 8]
MIC (Candida albicans): < 0.078 µg/mL

Structure (SMILES): CC(O)C(C)n1ncn(-c2ccc(N3CCN(c4ccc(OC[C@@H]5CO[C@@](Cn6cncn6)(c6ccc(Cl)cc6Cl)O5)cc4)CC3)cc2)c1=O (some centres unmarked) [11 + 12]
MIC (A. fumigatis): 0.137 µg/mL
MIC (Candida albicans; C. albicans strain 10231 (Table 3), read-out: Antifungal MIC): 1 µg/mL
MIC (Candida albicans; C. albicans strain 28516 (Table 3), read-out: Antifungal MIC): 0.25 µg/mL
MIC (Candida albicans; C. albicans strain 28815 (Table 3), read-out: Antifungal MIC): 0.125 µg/mL
MIC (Candida albicans; C. albicans strain 44203 (Table 3), read-out: Antifungal MIC): 0.05 µg/mL
MIC (Candida albicans; C. albicans strain 44373 (Table 3), read-out: Antifungal MIC): 0.5 µg/mL
MIC (Candida albicans; C. albicans strain 62342 (Table 3), read-out: Antifungal MIC): 0.5 µg/mL
MIC (Candida albicans; [8]): 0.05 µg/mL
MIC (Cr. neoformens; Cr. neoformens (Table 3)): 0.78 µg/mL
MIC (S. cerevisae; S. cerevisae (Table 3)): 0.195 µg/mL
selectivity ratio (cytochrome P450 3A4 [2]): 6.5
solubility [3]: 0.59 µg/mL
zone of inhibition at 10000 µg/mL (Sacchromyces cerevisae): 25 mm

Structure (SMILES): C[C@H](OS(=O)(=O)O)[C@@H](C)n1ncn(-c2ccc(N3CCN(c4ccc(OC[C@H]5CO[C@](Cn6cncn6)(c6ccc(Cl)cc6Cl)O5)cc4)CC3)cc2)c1=O [Compound 2-sulfate]
MIC (Candida albicans; [9]): 6.25 µg/mL (≈ 7.8 µM)

Structure (SMILES): CC(O)C(C)n1ncn(-c2ccc(N3CCN(c4ccc(OC[C@H]5CO[C@](Cn6cncn6)(c6ccc(Cl)cc6Cl)O5)cc4)CC3)cc2)c1=O (some centres unmarked) [Compound 3 + 4]
Inhibition of P450 3A4 in words (cytochrome P450 3A4 [7]): notably less inhibition of the P450 3A4 enzyme than the 2S,4R isomers
IC50/MIC ratio in words (cytochrome P450 3A4 [2]; therapeutic index, 3A4 vs C. albicans 44203): excellent results

Second part, led by results:

solubility [1]: > 100000 µg/mL
Structure (SMILES): C[C@H](OP(=O)(O)O)[C@@H](C)n1ncn(-c2ccc(N3CCN(c4ccc(OC[C@H]5CO[C@](Cn6cncn6)(c6ccc(Cl)cc6Cl)O5)cc4)CC3)cc2)c1=O [2-PO3 --NMG2]

solubility [1]: > 100000 µg/mL
Structure (SMILES): CC(OP(=O)(O)O)C(C)n1ncn(-c2ccc(N3CCN(c4ccc(OC[C@H]5CO[C@](Cn6cncn6)(c6ccc(Cl)cc6Cl)O5)cc4)CC3)cc2)c1=O (some centres unmarked) [3 + 4-PO3 --NMG2]

MIC (Candida albicans; [9]): 12.5 µg/mL (≈ 15.6 µM)
MIC (Cr. neoformens; Cr. neoformens (Table 7, esters)): 12.5 µg/mL (≈ 15.6 µM)
MIC (S. cerevisae; S. cerevisae (Table 7, esters)): 12.5 µg/mL (≈ 15.6 µM)
Structure (SMILES): C[C@H](OP(=O)(O)O)[C@@H](C)n1ncn(-c2ccc(N3CCN(c4ccc(OC[C@H]5CO[C@](Cn6cncn6)(c6ccc(Cl)cc6Cl)O5)cc4)CC3)cc2)c1=O [Compound 2-phosphate]
Ease of hydrolysis of phosphate ester [4]: most readily hydrolyzed compound in all three systems
Ease of hydrolysis of phosphate ester [5]: most readily hydrolyzed compound in all three systems
Ease of hydrolysis of phosphate ester [6]: most readily hydrolyzed compound in all three systems
